In ChEMBL document CHEMBL1201862, “PubChem BioAssay data set” (2004):
The source made the active and inactive calls.

What was measured:
Prothrombin = Prothrombin (Homo sapiens, UniProt P00734); experiment: Thrombin 1536 HTS Dose Response Confirmation. [Related pubchem assays: 1046 (Thrombin 1536 HTS; hits were confirmed in this assay)]; format: functional
Ion channel NompC = Ion channel NompC (Danio rerio, UniProt Q7T1G6); experiment: Fluorescence counterscreen assay for TRPML3 agonists: dose response cell-based high-throughput screening assay to identify agonists of the transient receptor potential channel N1 (TRPN1). [Related pubchem assays: 1526, 1424, 1448 ]; format: functional
Mucolipin-3 = target: T1, Mucolipin-3 (Homo sapiens, UniProt Q8TDD5); experiment: Dose response cell-based high-throughput screening assay for agonists of the transient receptor potential channel ML3 (TRPML3). [Related pubchem assays: 1526, 1424, 1448 ]; format: functional
T1 sequence (Q8TDD5 whole entry): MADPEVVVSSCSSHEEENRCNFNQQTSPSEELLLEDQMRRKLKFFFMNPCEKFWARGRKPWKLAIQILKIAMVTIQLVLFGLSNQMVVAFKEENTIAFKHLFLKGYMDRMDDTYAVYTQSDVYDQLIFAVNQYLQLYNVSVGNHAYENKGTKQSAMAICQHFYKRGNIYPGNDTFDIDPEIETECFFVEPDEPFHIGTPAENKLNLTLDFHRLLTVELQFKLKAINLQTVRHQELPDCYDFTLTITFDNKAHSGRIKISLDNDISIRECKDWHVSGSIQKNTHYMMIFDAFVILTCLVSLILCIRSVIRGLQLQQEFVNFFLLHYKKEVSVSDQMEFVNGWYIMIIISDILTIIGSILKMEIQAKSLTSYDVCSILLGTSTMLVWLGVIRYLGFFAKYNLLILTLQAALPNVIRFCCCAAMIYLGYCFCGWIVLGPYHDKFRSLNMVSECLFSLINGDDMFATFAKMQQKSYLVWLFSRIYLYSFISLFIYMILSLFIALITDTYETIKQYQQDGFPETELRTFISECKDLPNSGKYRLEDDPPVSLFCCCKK

[1] = viability inhibitors of stage V gametocytes – luminescence, dose response (AID 1117278); format: functional, cell-based;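 also: gametocytes exposed to compound for 24 hours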
[2] = viability loss in human Jurkat cells – cell-based, luminescence, cytotoxicity control for P. falciparum gametocyte viability project, dose response (AID 1117277); format: functional;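 also: potency reflects loss of cellular ATP meaning fewer viable cells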
[3] = HPDE-C7 pancreatic duct cell viability loss – fluorescence, HTS (AID 430); format: functional, cell-based; settings: Homo sapiens
[4] = viability loss of HPDE-C7K cells – cell-based, fluorescence, HTS, primary screen (AID 431); format: functional; settings: Homo sapiens
NADPH oxidase 1 = target: T2, NADPH oxidase 1 (Homo sapiens, UniProt Q9Y5S8); format: functional, cell-based;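 also: Cell-based assay with luminescence read-out, IC50 derived from inhibitor dose-response curves; intracellular ROS from endogenous NOX1 in intact HT29 colon cancer cells; potency of inhibitors that lower the ROS luminescence signal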
T2 sequence (Q9Y5S8 whole entry): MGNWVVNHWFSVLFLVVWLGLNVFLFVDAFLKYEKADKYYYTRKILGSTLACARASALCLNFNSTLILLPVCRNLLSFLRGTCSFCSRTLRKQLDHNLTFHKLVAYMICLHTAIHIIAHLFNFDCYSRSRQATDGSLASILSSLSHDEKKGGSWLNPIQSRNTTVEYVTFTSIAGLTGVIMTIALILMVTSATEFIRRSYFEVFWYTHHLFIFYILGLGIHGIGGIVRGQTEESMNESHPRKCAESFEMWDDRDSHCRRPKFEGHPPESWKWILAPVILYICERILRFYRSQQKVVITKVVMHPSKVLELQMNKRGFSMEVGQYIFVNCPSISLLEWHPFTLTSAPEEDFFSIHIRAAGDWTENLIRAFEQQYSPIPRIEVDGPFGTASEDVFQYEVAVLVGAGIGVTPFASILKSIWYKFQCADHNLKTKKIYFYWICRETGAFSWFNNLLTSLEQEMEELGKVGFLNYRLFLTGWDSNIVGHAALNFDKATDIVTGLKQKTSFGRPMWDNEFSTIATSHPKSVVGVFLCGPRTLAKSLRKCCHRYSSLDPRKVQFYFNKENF

Genome polyprotein = target: T3, Genome polyprotein (Hepatitis C virus, UniProt Q2Q167); experiment: disruption of hepatitis C core self-association – biochemical, TR-FRET, dose response (AID 2159); design: species or system Hepacivirus hominis;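 also: blocks dimerization of HCV core protein measured by TR-FRET between tagged core106 pairs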
T3 sequence (Q2Q167 whole entry): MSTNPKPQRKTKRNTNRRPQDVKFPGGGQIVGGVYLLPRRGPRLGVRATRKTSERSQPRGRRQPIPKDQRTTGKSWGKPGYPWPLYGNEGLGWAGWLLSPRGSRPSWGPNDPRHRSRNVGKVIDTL

[5] = target: T4, Histone-lysine N-methyltransferase NSD2 (Homo sapiens, UniProt O96028); format: biochemical
T4 sequence (O96028 whole entry): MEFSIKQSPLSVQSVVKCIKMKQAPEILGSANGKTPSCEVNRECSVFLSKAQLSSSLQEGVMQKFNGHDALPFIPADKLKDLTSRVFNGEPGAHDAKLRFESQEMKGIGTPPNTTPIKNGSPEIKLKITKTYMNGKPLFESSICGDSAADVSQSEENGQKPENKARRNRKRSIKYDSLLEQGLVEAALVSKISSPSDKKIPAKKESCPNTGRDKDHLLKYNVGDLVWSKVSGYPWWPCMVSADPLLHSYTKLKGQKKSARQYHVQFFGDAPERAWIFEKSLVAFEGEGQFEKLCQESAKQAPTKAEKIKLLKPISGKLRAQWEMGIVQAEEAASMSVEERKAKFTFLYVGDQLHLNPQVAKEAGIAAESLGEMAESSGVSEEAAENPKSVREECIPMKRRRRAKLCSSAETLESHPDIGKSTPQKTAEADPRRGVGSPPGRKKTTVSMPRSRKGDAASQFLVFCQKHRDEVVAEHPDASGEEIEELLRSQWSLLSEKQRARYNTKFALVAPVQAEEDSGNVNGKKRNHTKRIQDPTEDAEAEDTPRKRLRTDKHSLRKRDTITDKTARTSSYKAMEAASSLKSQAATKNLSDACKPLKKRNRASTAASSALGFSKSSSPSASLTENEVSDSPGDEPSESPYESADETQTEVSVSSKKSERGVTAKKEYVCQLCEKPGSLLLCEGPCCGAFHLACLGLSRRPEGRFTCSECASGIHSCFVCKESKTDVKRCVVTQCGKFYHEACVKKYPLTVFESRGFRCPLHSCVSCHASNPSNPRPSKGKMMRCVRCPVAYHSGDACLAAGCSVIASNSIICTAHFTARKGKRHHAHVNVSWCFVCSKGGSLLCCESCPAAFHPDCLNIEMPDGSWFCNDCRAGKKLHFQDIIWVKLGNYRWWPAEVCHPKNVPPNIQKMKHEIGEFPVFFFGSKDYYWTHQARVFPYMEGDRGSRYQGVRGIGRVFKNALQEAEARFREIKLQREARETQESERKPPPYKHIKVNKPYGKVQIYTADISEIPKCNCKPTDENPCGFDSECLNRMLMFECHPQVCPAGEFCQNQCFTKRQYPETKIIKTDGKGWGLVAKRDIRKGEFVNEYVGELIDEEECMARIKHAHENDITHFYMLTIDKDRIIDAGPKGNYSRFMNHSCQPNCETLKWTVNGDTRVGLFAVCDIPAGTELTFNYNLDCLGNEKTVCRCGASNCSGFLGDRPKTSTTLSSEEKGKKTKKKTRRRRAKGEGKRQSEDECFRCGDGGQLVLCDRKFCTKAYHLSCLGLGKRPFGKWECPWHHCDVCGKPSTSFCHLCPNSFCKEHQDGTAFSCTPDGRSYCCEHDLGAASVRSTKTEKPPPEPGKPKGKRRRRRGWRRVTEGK

Caspase-6 = target: T5, Caspase-6 (Homo sapiens, UniProt P55212); experiment: inhibition of CASP6 peptide cleavage – biochemical, VEID-R110 fluorescence, cherry-pick, dose response (AID 720632)
T5 sequence (P55212 whole entry): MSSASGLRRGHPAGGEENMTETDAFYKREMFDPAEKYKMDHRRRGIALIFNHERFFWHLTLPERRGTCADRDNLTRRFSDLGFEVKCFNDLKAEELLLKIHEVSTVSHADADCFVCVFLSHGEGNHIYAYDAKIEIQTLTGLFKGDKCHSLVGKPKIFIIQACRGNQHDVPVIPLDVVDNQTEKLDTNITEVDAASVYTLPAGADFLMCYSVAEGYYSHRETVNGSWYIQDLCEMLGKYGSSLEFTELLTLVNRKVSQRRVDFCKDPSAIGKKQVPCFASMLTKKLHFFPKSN

[6] = target: T6, Tyrosyl-DNA phosphodiesterase 2 (Homo sapiens, UniProt O95551); experiment: potency against TDP2 phosphodiesterase activity – biochemical, epi absorbance, IC50, dose response (AID 743297)
T6 sequence (O95551 whole entry): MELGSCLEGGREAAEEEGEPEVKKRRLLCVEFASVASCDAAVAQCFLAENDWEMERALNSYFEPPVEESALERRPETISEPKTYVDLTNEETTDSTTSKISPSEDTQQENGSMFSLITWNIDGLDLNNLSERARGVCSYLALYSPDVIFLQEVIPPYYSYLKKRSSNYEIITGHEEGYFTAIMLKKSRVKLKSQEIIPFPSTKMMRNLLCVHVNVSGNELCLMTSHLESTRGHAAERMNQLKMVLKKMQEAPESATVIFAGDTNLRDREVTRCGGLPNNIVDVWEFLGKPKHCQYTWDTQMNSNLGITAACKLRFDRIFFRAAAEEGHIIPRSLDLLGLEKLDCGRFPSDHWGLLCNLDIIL

[7] = cytotoxicity toward Colo320 cells – cell-based, CellTiter-Glo luminescence, IC50, dose response (AID 1117334); format: functional; settings: COLO 320
[8] = CellTiter-Glo luminescence survival assay, SW480 colon tumor line, concentration-response curve, half-maximal inhibitory concentration (AID 1117338); format: functional
INS1 = experiment: INS-1E survival protection against cytokine death – cell-based, luminescence, retest, dose response (AID 449756); format: functional; settings: Rattus norvegicus;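 also: cell death triggered by IL-1 beta plus TNF-alpha plus IFN-gamma mixture; protective hits raise ATP signal compared with cytokine alone wells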
[9] = rise of 4N DNA cells, HeLa – IC50, dose response (AID 1117351); format: functional, cell-based
Cytochrome P450 1A2 = target: T7, Cytochrome P450 1A2 (Homo sapiens, UniProt P05177);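 also: PubChem cytochrome P450 panel assay, CYP1A2 panel member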
T7 sequence (P05177 whole entry): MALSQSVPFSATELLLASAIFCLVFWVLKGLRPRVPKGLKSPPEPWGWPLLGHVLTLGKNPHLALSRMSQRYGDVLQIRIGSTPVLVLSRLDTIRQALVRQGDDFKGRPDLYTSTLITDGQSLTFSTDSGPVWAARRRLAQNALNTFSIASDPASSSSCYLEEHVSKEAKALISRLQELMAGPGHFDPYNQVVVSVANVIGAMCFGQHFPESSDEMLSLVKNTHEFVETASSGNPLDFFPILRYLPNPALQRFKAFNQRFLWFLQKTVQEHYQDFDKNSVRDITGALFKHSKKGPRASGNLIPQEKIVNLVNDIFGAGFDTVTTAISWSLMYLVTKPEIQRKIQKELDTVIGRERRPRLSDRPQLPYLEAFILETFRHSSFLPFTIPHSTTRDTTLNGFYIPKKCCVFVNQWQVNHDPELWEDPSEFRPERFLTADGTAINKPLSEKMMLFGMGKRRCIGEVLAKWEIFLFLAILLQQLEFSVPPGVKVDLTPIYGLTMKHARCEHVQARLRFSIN

[10] = Reduced DLD-1 viability, concentration-response, CellTiter-Glo luminescence (AID 1117352); format: functional
[11] = cytotoxicity toward HCT116 cells – cell-based, CellTiter-Glo luminescence, IC50, dose response (AID 1117332); format: functional; settings: HCT-116
[12] = SNU-C1 cell viability reduction, dose response, CellTiter-Glo luminescence (AID 1117323); format: functional, cell-based
[13] = target: Heat shock protein HSP 90-alpha (Homo sapiens, UniProt P07900); format: functional, organism-based
[14] = rise of 2N DNA cells, HeLa – IC50, dose response (AID 1117349); format: functional, cell-based
[15] = RKO cell viability reduction, dose response, CellTiter-Glo luminescence (AID 1117322); format: functional
[16] = HCT116 cell viability decrease, GSK3B pretreatment – CellTiter-Glo, IC50, dose response (AID 1117339); format: functional; settings: HCT-116

Ion channel NompC, sequence (Q7T1G6 whole entry): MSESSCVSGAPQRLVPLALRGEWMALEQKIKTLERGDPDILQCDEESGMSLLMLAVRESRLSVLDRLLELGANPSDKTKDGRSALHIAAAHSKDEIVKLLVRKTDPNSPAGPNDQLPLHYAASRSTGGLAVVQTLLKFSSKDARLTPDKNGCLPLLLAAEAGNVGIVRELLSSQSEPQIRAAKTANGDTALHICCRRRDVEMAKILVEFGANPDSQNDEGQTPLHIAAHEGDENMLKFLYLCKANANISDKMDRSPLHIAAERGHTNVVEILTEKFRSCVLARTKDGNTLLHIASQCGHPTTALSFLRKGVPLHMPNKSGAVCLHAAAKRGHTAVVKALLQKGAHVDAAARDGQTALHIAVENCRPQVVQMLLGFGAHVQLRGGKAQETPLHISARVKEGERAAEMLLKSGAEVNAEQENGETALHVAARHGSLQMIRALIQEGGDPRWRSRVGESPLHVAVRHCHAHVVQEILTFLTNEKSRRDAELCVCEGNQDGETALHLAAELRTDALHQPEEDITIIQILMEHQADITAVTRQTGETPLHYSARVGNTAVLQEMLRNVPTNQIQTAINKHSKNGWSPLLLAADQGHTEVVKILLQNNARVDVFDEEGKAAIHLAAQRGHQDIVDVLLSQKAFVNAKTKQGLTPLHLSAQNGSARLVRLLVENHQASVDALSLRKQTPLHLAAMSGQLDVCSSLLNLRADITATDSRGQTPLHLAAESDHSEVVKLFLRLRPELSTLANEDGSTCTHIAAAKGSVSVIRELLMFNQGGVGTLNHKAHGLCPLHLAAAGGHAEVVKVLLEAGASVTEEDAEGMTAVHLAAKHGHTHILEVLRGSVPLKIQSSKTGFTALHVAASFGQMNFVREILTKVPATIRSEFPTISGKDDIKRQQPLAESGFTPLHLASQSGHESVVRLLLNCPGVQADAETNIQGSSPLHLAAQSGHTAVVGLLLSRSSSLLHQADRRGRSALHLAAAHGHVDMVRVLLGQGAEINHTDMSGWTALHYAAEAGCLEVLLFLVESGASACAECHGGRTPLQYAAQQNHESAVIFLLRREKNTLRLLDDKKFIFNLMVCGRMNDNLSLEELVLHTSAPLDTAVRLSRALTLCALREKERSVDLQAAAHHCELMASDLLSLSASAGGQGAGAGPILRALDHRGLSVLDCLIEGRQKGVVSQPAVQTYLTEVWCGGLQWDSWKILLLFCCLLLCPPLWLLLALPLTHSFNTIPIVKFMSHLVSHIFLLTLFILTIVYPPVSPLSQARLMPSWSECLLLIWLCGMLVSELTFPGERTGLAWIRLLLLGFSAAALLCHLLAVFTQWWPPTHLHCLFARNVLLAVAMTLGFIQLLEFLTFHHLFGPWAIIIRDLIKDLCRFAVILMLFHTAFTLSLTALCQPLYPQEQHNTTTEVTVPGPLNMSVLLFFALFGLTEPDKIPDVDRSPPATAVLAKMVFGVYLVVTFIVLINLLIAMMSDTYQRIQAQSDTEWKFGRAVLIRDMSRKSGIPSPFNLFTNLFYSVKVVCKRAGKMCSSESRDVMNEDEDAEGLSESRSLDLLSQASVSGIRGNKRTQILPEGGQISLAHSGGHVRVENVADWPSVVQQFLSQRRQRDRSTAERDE

Cc1ccc2c(c1)CC1(CN2C)C(=O)OC(C)(C)OC1=O
IC50 (Prothrombin): 1.69 µM (active)

O=C(CC(Nc1ccc(F)cc1)C(=O)OCC(=O)c1cccs1)c1ccccc1 (configuration not stated)
IC50 (Prothrombin): 2.82 µM (active)

COc1ccc(S(=O)(=O)N(CC(=O)N2CCOCC2)c2cc(Cl)ccc2OC)cc1OC
EC50 (Ion channel NompC): > 29.9 µM (not active)
EC50 (Mucolipin-3): 4.75 µM (active)

Cc1ccccc1N1CCN(S(=O)(=O)c2ccccc2)CC1
EC50 (Ion channel NompC): > 29.9 µM (not active)
EC50 (Mucolipin-3): 5.11 µM (active)

O=C(c1ccco1)N1CCN(C(=O)C2c3ccccc3Oc3ccccc32)CC1
IC50 [1]: > 109 µM (inactive)
IC50 [2]: 64.4 µM (inactive)

CCCCOc1cccc(C(=O)Nc2ccc(N3CCN(CC)CC3)cc2)c1
EC50 [3]: > 20 µM (not active)
EC50 [4]: > 20 µM (not active)

Cc1cc(C)c(C2=NOC3C4CCC(C4)C23)c(C)c1 (configuration not stated)
EC50 (Ion channel NompC): > 29.9 µM (not active)
EC50 (Mucolipin-3): 1.77 µM (active)

CN(C1CCS(=O)(=O)C1)S(=O)(=O)c1ccccc1 (configuration not stated)
IC50 [1]: > 109 µM (inactive)
IC50 [2]: > 83.3 µM (inactive)

O=C(Oc1ccc(Cl)cc1)c1sc2ccccc2c1Cl
IC50 (NADPH oxidase 1): > 17 µM (not active)

COc1cccc(NC(=O)CN(C)C(=O)c2cc3c(s2)CCC3)c1
IC50 (Genome polyprotein): > 49.8 µM (not active)

O=C(/C=C/c1ccc(Br)o1)OCc1nc(O)c2sccc2n1
IC50 (Genome polyprotein): 18.2 µM (not active)

CC(=O)Nc1ccc(-c2nc(-c3ccccc3)c(-c3ccccc3)[nH]2)cc1
IC50 (NADPH oxidase 1): > 17 µM (not active)

COc1ccc(-c2nc(-c3ccc(OC)cc3)c(-c3ccc(OC)cc3)[nH]2)cc1
IC50 (NADPH oxidase 1): > 17 µM (not active)

O=C(CSc1nc2ncnc-2c(O)[nH]1)NC1CCCCC1
IC50 (Prothrombin): > 50 µM (not active)

COc1cc(N)c2ncccc2c1Br
AC50 [5]: 13.1 µM (active)
AC50 (Caspase-6): 10 µM (active)
IC50 [6]: > 128 µM (inactive)

Cc1ccc(CN2CCN(Cc3ccc(-n4cccn4)cc3)CC2CCO)cc1 (configuration not stated)
IC50 [1]: > 109 µM (inactive)
IC50 [2]: > 83.4 µM (inactive)

Cc1cc(C2CCCCC2)n(O)c(=O)c1 [CICLOPIROX OLAMINE]
IC50 [7]: 0.208 µM (active)
IC50 [8]: 0.469 µM (active)
AC50 (INS1): 0.78 µM (active)
IC50 [9]: > 10 µM (inactive)
AC50 (Cytochrome P450 1A2): 15.8 µM (inconclusive)
IC50 [10]: 0.316 µM (active)
IC50 [11]: 0.656 µM (active)
IC50 [12]: > 20 µM (inactive)
AC50 [13]: < 0.195 µM (active)
IC50 [14]: > 10 µM (inactive)
IC50 [15]: 0.233 µM (active)
IC50 [16]: 0.39 µM (active)
